Tested on: sole of the rat paws
Assay: Measurement of skin lesion (erythema) on rat paw;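 further: grades − to ++++ mean no to extremely severe erythema versus before injection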
Assay type: in vivo, Sprague Dawley rats
How it was run: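 Male Sprague Dawley rats (6 weeks, 170–200 g) received 0.1 ml test composition or PBS injected into the paw. Paw thickness measured by caliper before, immediately after, and 1 or 2 h post-injection; sole lesions photographed and graded 0–4.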

[1] = PPC single composition 1.25% (w/v)
[2] = PPC single composition 2.50% (w/v)
[3] = PPC single composition 5.00% (w/v)
[4] = PPC single composition 7.50% (w/v)
[5] = PPC single composition 10.0% (w/v)
[6] = PPC single composition 12.5% (w/v)
[7] = PPC single composition 15.0% (w/v)

1,2-diacyl-sn-glycero-3-phosphocholine [PPC]
−: grade of skin lesion (erythema), 1 hour after administration [1] | grade of skin lesion (erythema), 2 hours after administration [1] | grade of skin lesion (erythema), Immediately after administration [1] | grade of skin lesion (erythema), 1 hour after administration [2] | grade of skin lesion (erythema), 2 hours after administration [2] | grade of skin lesion (erythema), Immediately after administration [2] | grade of skin lesion (erythema), 1 hour after administration [3] | grade of skin lesion (erythema), 2 hours after administration [3] | grade of skin lesion (erythema), Immediately after administration [3] | grade of skin lesion (erythema), 1 hour after administration [4] | grade of skin lesion (erythema), 2 hours after administration [4] | grade of skin lesion (erythema), Immediately after administration [4] | grade of skin lesion (erythema), 1 hour after administration [5] | grade of skin lesion (erythema), 2 hours after administration [5] | grade of skin lesion (erythema), Immediately after administration [5] | grade of skin lesion (erythema), 1 hour after administration [6] | grade of skin lesion (erythema), 2 hours after administration [6] | grade of skin lesion (erythema), Immediately after administration [6] | grade of skin lesion (erythema), 1 hour after administration [7] | grade of skin lesion (erythema), 2 hours after administration [7] | grade of skin lesion (erythema), Immediately after administration [7]

Source: patent US11298314B2, “Injectable composition for localized fat reduction without pain, edema, and side effects, and method for preparing same” (AMI PHARM CO., LTD., priority 2017, dated 2022)
